Measurements taken from article PMC10766536 (The Journal of Antibiotics, 2023).
Where two headings read alike, the source gives them in different places.

Columns and labels:
[1] = tested on: S. aureus NRS384; experiment: S. aureus intracellular killing assay in THP-1 macrophages; type: cell-based; details: S. aureus NRS384 in THP-1 macrophages, 2 h, top conc. 1e−6 M
Method: (§1) THP-1 monocytic cell line (American Type Culture Collection) was grown in media (RPMI + 10% FBS + 1% Penicillin/Streptomycin), then seeded at a density of 1e5 cells/well in a 96 well plate and differentiated into macrophages for 3 days prior to infection using 200 nM PMA. Overnight culture of S. aureus or S. typhimurium was grown in RPMI or TSB, respectively, washed twice with PBS and resuspended at 1e7 cfu/ml in PBS. THP-1 were washed with warm media (RMPI without FBS) to remove the Penicillin/Streptomycin and then infected with the bacterial suspension at a multiplicity of infection of 10:1 (S. aureus:macrophages) or 5:1 (S. typhimurium:macrophages). Plates were centrifuged at 300 × g for 5 min to synchronize adhesion of the bacteria to the macrophages, then incubated at 37 °C for 2 h for S. aureus infection or 1 h for S. typhimurium infection. Free-floating bacteria were removed by washing twice with warm media and the remaining extracellular bacteria were killed by addition of media containing gentamicin (50 ug/ml). After 1 h, media was aspirated and the indicated compound was added to the S. aureus-infected macrophages in a dilution series starting at 1e−6 M, with 1:5 dilutions for 6 points (1.0 × 10^−6 M, 2.0 × 10^−7 M, 4.0 × 10^−8 M, 8.0 × 10^−9 M, 1.6 × 10^−9 M, and 3.2 × 10^−10 M) or to the to the S. typhimurium-infected macrophages in a dilution series starting at 1e−4 M, with 1:3 dilutions followed by 1:10 dilutions for 6 points (1.0 × 10^−4 M, 3.0 × 10^−5 M, 1.0 × 10^−5 M, 1.0 × 10^−6 M, 1.0 × 10^−7 M, and 1.0 × 10^−8 M). The compounds were added in media containing 50 µg/ml gentamicin to prevent extracellular growth of bacteria. After 2 h, plates were washed twice with warm RPMI without FBS, and 100 μl of THP-1 lysis buffer (0.1% Triton in PBS) was added to each well. Bacterial survival was enumerated by colony forming units (cfu) through serial dilution and plating onto tryptic soy agar (TSA, Teknova) plates.

[2] = target: CYP 3A4 (Homo sapiens, UniProt P08684); details: read-out: CYP inhibition IC50, ND = Not Detected
[3] = S9 microsome stability, CD-1 mouse; details: text statement for rodent (mouse and rat) S9
[4] = target: CYP 2C19 (Homo sapiens, UniProt P33261)
[5] = target: CYP 2D6 (Homo sapiens, UniProt P10635); experiment: CYP inhibition; details: read-out: CYP inhibition IC50; CYP 2D6, substrate Dextromethorphan; ND = Not Detected
[6] = tested on: Salmonella typhimurium ATCC 14028; experiment: S. typhimurium broth killing (growth inhibition) assay; details: Salmonella typhimurium ATCC 14028, TSB, 24 h
Source text: (§2) To test the potency of rifamycin analogs of the disclosure in vitro, a broth growth inhibition assay was developed.

[7] = tested on: Caco-2: endogenous transporters
[8] = tested on: Caco-2: endogenous transporters; experiment: Caco-2 permeability
[9] = target: T1, MDCK-MDR1: overexpression of Pgp (Homo sapiens, UniProt P08183); experiment: MDCK-MDR1 permeability and efflux
[10] = target: CYP 2B6 (Homo sapiens, UniProt P20813)
[11] = Compound stability in CYP induction assay
[12] = tested on: CYP 3A4
[13] = tested on: S. aureus NRS384; experiment: S. aureus broth killing (growth inhibition) assay; details: S. aureus NRS384, TSB, 24 h, OD600
Source text: as §2

[14] = tested on: Sprague Dawley rats; experiment: 2-week IV once-a-day toxicity study with 2-week recovery in Sprague Dawley rats
Method: A subset from each dose group was maintained for 14 days after the last dose to evaluate delayed toxicity and/or recovery. All animals were observed twice daily for mortality and signs of pain or distress. Detailed clinical observations, body weight measurements and food consumption were conducted weekly; post dose observations (30 min post dose) were conducted daily or as required. Clinical pathology evaluations (hematology, coagulation parameters, and serum chemistry) were performed using samples collected on the day of scheduled sacrifice (main and recovery). At the end of the 14-day dosing period, and at the end of the 14-day recovery period, necropsies were performed on all animals, selected organs were weighed, and tissues were examined macroscopically and microscopically. Toxicokinetic parameters were evaluated on Day 1 and 14.

[15] = target: T1, MDCK-MDR1: overexpression of Pgp
[16] = mouse, s9
[17] = target: CYP 1A2 (Homo sapiens, UniProt P05177); details: read-out: CYP inhibition IC50; CYP 1A2, substrate Phenacetin; ND = Not Detected
[18] = tested on: Salmonella typhimurium AR-0031; experiment: S. typhimurium intracellular killing assay in THP-1 macrophages; type: cell-based; details: Salmonella typhimurium AR-0031 in THP-1 macrophages, top conc. 1e−4 M
Method: as §1

[19] = tested on: Salmonella typhimurium ATCC 14028; experiment: as above; type: cell-based; details: Salmonella typhimurium ATCC 14028 in THP-1 macrophages, top conc. 1e−4 M
Method: as §1

[20] = combination with vancomycin, end of treatment
[21] = end of treatment period, compound alone
[22] = males, combination with vancomycin (1 + 110 mg/kg/day), end of treatment, considered vancomycin-related

T1 sequence (P08183 whole entry): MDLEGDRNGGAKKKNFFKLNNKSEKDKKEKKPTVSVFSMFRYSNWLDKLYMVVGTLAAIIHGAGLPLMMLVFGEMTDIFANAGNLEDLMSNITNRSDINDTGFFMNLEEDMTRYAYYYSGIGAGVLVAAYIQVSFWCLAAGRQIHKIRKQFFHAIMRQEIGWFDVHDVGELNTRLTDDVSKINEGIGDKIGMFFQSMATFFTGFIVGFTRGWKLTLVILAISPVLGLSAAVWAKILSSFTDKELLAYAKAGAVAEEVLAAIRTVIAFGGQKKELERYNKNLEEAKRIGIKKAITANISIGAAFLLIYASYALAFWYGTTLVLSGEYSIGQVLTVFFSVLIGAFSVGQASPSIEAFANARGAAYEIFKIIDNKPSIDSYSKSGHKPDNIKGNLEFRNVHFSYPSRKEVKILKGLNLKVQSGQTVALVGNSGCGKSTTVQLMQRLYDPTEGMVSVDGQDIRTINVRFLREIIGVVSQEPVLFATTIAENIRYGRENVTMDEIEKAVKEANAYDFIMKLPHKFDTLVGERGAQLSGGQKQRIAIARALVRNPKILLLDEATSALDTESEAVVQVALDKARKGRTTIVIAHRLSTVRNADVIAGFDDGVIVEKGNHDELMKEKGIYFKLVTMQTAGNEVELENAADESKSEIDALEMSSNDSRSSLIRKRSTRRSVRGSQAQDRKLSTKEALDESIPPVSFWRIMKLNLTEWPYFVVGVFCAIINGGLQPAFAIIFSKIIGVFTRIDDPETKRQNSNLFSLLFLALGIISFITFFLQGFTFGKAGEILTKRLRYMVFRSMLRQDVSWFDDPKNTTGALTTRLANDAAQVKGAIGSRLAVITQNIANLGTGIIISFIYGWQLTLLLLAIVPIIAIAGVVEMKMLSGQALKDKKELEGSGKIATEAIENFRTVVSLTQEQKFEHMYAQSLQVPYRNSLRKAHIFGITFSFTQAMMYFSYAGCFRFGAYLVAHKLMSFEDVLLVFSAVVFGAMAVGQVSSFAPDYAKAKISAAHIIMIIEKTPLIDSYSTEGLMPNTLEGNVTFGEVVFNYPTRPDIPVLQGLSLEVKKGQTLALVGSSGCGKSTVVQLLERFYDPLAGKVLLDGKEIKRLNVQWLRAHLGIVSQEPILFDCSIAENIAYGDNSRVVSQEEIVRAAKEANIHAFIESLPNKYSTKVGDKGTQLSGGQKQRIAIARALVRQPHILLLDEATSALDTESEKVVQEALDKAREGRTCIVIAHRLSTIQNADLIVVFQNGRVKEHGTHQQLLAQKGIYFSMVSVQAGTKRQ
Chain of CYP 3A4 (Homo sapiens, UniProt P08684) (P08684 whole entry): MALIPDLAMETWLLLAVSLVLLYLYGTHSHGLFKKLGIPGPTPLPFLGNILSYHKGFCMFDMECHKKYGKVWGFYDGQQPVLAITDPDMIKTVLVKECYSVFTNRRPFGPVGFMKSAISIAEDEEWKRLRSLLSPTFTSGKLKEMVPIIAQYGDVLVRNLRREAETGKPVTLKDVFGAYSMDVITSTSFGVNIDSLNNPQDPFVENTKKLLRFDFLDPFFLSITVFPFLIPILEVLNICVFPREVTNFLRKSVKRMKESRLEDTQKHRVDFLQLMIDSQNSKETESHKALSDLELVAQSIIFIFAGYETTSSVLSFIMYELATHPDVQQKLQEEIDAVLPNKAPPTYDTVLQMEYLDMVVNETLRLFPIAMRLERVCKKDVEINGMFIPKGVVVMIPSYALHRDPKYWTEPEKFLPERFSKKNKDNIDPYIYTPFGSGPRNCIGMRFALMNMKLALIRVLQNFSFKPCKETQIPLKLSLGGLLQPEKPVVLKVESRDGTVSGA
Chain of CYP 2C19 (P33261 whole entry): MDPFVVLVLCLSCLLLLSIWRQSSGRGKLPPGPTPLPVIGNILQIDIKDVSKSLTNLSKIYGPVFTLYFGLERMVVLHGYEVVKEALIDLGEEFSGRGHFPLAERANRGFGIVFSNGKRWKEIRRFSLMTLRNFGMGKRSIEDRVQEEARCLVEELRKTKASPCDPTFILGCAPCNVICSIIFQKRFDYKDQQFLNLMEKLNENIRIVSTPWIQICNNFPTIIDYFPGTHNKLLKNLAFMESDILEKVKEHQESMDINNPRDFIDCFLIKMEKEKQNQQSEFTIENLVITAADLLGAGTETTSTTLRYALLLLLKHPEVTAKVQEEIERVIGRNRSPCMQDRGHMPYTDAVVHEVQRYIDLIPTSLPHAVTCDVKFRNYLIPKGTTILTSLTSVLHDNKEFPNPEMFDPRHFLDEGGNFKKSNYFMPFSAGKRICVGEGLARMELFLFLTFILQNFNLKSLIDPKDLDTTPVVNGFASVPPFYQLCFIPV
Chain of CYP 2D6 (P10635 whole entry): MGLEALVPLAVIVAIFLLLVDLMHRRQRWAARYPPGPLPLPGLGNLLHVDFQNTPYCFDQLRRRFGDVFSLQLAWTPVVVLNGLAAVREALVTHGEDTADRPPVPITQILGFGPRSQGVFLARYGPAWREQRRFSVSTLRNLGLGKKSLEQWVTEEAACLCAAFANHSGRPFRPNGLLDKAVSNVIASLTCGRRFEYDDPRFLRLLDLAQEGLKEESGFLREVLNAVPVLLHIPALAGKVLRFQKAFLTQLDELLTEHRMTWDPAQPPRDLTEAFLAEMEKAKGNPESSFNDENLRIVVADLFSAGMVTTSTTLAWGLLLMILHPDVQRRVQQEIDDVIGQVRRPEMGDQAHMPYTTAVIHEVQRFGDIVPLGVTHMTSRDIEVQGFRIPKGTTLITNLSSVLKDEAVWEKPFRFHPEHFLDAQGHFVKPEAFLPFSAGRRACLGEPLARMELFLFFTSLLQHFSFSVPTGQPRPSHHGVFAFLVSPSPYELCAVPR
Chain of CYP 2B6 (P20813 whole entry): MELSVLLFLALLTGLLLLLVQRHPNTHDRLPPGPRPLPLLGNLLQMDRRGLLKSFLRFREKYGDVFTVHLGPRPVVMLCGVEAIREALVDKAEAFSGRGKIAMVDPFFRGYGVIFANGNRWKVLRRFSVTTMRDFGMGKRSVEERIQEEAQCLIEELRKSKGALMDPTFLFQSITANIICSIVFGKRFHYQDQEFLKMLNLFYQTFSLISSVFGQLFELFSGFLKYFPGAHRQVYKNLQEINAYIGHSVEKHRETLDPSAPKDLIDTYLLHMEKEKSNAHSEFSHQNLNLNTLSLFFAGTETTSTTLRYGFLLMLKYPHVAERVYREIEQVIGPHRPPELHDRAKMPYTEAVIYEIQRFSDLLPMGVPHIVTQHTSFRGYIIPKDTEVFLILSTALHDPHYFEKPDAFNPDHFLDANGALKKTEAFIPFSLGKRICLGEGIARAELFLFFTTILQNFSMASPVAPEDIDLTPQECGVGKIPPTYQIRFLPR
Chain of CYP 1A2 (P05177 whole entry): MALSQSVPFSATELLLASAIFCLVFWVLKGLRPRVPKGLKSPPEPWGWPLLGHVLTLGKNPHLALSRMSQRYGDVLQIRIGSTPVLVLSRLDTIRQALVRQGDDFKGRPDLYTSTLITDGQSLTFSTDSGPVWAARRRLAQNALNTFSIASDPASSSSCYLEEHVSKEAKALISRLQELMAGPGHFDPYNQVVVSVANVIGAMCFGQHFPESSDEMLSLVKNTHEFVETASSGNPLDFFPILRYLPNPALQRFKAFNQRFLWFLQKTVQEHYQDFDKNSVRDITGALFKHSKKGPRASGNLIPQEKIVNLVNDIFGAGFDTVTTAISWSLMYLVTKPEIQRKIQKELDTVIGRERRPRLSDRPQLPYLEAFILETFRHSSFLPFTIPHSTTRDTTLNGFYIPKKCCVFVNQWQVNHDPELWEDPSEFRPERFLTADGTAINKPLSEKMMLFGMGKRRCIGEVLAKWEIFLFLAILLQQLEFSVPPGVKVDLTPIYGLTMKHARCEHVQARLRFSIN

COC1C=COC2(C)Oc3c(C)c(O)c4c(=O)c(c5oc6cc(OCCN(C)C)ccc6nc-5c4c3C2=O)NC(=O)C(C)=CC=CC(C)C(O)C(C)C(O)C(C)C(OC(C)=O)C1C (centres unmarked) [Compound 4]
Intracellular MIC [1]: 0.04 µM
IC50 ([2]; CYP 3A4, substrate Midazolam): 8.05 µM
IC50 ([2]; CYP 3A4, substrate Testosterone): 5.66 µM
half-lives, rodent S9 microsomal stability [3]: greater than 120 min
IC50 [4]: 9.99 µM
IC50 [5]: 11.7 µM
Broth MIC [6]: 4 µM
Mean A-B % Recovery [7]: 52.70%
Mean B-A % Recovery [7]: 66.30%
Mean Papp A-B [7]: 2.59 10^−6 cm/s
Mean Papp B-A [7]: 10.3 10^−6 cm/s
Mean (B-A/A-B) Efflux Ratio [8]: 3.97
Mean (B-A/A-B) Efflux Ratio [9]: 13.7
IC50 [10]: 11.6 µM
Average % Stability [11]: 75.8%
Fold Induction (Enzyme Activity) [12]: 0.128
Broth MIC [13]: 0.00391 µM
albumin concentration [14, 20]: minimal decrease
glucose concentration [14, 20]: minimal increase
urea nitrogen [14, 20]: minimal increase
dose with apparent minimal increase in alkaline phosphatase in males ([14]; end of recovery period): ≥ 1 mg/kg/day
dose with increase in glucose ([14]; end of recovery period): ≥ 0.1 mg/kg/day
dose with minimal to mild decreases in globulin in males ([14]; end of recovery period): ≥ 0.1 mg/kg/day
dose with minimal increases in phosphorus ([14]; end of treatment period): ≥ 0.1 mg/kg/day
dose with minimal increases in reticulocyte counts ([14]; end of treatment period): ≥ 0.1 mg/kg/day
dose with minimal decrease in albumin concentration [14, 21]: 10 mg/kg/day
dose with minimal increase in glucose concentration [14, 21]: 1 mg/kg/day
neutrophils counts [14, 22]: mild decreases
platelet counts [14, 22]: minimal increase
red cell mass parameters (red blood cells, hemoglobin, hematocrit) [14, 22]: minimal decreases
calcium ([14]; males, combination with vancomycin, after 14-day recovery): minimal decrease
globulin ([14]; males, combination with vancomycin, end of recovery period): minimal to mild decreases
fibrinogen ([14]; males, combination with vancomycin, end of treatment, attributed to vancomycin): minimal increases
tolerability ([14]; rat, IV QD 14 days, 0.1-10 mg/kg/day): well-tolerated
body weight, body weight gains, food consumption changes ([14]; rat, IV QD 14 days, alone or in combination with vancomycin): no body weight, body weight gains, or food consumption changes
no-observed-adverse-effect level (NOAEL) ([14]; rat, IV QD 14 days, highest dose administered): 10 mg/kg/day
Mean A-B % Recovery [15]: 89.10%
Mean B-A % Recovery [15]: 54.80%
Mean Papp A-B [15]: 1.38 10^−6 cm/s
Mean Papp B-A [15]: 18.9 10^−6 cm/s
T1/2 [16]: >2 h
IC50 [17]: 10.9 µM
Intracellular MIC [18]: 30 µM
Intracellular MIC [19]: 100 µM
